Source: US20130109682A1, “CYCLIC ETHER COMPOUNDS USEFUL AS KINASE INHIBITORS” (NOVARTIS AG, priority 2010, published 2013)

Columns and labels:
Type in all cases: biochemical
[1] = target: PIM1 (Homo sapiens, UniProt P11309); experiment: KinaseGlo Pim1 ATP depletion assay
Procedure: KinaseGlo Pim1 ATP Depletion Assay
The activity of PIM1 is measured using a luciferase-luciferin based ATP detection reagent to quantify ATP depletion resulting from kinase-catalyzed phosphoryl transfer to a peptide substrate. Compounds to be tested are dissolved in 100% DMSO and directly distributed into white 384-well plates at 0.5 μA per well. To start the reaction, 10 μA of 5 nM Pim1 kinase and 80 μM BAD peptide (RSRHSSYPAGT-OH) in assay buffer (50 mM HEPES pH 7.5, 5 mM MgCl2, 1 mM DTT, 0.05% BSA) is added into each well. After 15 minutes, 10 μl of 40 μM ATP in assay buffer is added. Final assay concentrations are 2.5 nM PIM1, 20 μM ATP, 40 μM BAD peptide and 2.5% DMSO. The reaction is performed until approximately 50% of the ATP is depleted, then stopped with the addition of 20 μA KinaseGlo Plus (Promega Corporation) solution. The stopped reaction is incubated for 10 minutes and the remaining ATP detected via luminescence on the Victor2 (Perkin Elmer). […] IC50, the half maximal inhibitory concentration, represents the concentration of a test compound that is required for 50% inhibition of its target in vitro.

[2] = target: PIM2 (Homo sapiens, UniProt Q9P1W9); experiment: KinaseGlo Pim2 ATP depletion assay
PIM2, sequence (Q9P1W9 whole entry): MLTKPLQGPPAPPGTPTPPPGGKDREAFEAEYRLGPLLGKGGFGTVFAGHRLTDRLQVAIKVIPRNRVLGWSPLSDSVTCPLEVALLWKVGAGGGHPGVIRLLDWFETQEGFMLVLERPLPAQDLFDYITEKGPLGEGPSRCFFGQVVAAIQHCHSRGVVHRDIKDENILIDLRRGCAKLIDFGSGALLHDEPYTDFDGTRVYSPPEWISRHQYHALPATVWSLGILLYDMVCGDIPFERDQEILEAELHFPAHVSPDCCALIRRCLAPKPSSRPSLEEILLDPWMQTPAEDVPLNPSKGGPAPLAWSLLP
Procedure: KinaseGlo Pim2 ATP Depletion Assay
The activity of PIM2 is measured using a luciferase-luciferin based ATP detection reagent to quantify ATP depletion resulting from kinase-catalyzed phosphoryl transfer to a peptide substrate. Compounds to be tested are dissolved in 100% DMSO and directly distributed into white 384-well plates at 0.5 piper well. To start the reaction, 10 μl of 10 nM Pim2 kinase and 20 μM BAD peptide (RSRHSSYPAGT-OH) in assay buffer (50 mM HEPES pH 7.5, 5 mM MgCl2, 1 mM DTT, 0.05% BSA) is added into each well. After 15 minutes, 10 μl of 8 μM ATP in assay buffer is added. Final assay concentrations are 5 nM PIM2, 4 μM ATP, 10 μM BAD peptide and 2.5% DMSO. The reaction is performed until approximately 50% of the ATP is depleted, then stopped with the addition of 20 μl KinaseGlo Plus (Promega Corporation) solution. The stopped reaction is incubated for 10 minutes and the remaining ATP detected via luminescence on the Victor2 (Perkin Elmer).

[3] = target: PIM3 (Homo sapiens, UniProt Q86V86); experiment: KinaseGlo Pim3 ATP depletion assay
Procedure: KinaseGlo Pim3 ATP Depletion Assay
The activity of PIM3 is measured using a luciferase-luciferin based ATP detection reagent to quantify ATP depletion resulting from kinase-catalyzed phosphoryl transfer to a peptide substrate. Compounds to be tested are dissolved in 100% DMSO and directly distributed into white 384-well plates at 0.5 μl per well. To start the reaction, 10 μl of 10 nM Pim3 kinase and 200 μM BAD peptide (RSRHSSYPAGT-OH) in assay buffer (50 mM HEPES pH 7.5, 5 mM MgCl2, 1 mM DTT, 0.05% BSA) is added into each well. After 15 minutes, 10 μl of 80 μM ATP in assay buffer is added. Final assay concentrations are 5 nM […], 40 μM ATP, 100 μM BAD peptide and 2.5% DMSO. The reaction is performed until approximately 50% of the ATP is depleted, then stopped by the addition of 20 μl KinaseGlo Plus (Promega Corporation) solution. The stopped reaction is incubated for 10 minutes and the remaining ATP detected via luminescence on the Victor2 (Perkin Elmer).

[4] = target: GSK3β (Homo sapiens, UniProt P49841); experiment: GSK3β ATP depletion assay; conditions: read-out: GSK3b IC50
GSK3β, sequence (P49841 whole entry, species assumed): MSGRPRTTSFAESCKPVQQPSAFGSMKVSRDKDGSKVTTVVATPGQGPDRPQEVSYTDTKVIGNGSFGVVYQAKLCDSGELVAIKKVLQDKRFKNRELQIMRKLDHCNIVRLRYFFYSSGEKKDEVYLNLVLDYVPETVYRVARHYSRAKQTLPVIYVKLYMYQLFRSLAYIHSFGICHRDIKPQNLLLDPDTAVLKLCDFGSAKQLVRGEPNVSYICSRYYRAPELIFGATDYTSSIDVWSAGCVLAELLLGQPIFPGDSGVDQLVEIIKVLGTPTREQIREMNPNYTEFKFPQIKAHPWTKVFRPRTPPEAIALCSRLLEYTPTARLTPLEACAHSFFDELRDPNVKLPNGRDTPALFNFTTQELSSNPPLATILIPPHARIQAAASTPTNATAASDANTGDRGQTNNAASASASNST
Procedure: GSK3β ATP Depletion Assay
The activity of GSK3β is measured using a luciferase-luciferin based ATP detection reagent to quantify ATP depletion resulting from kinase-catalyzed phosphoryl transfer to a peptide substrate. Compounds to be tested are dissolved in 100% DMSO and directly distributed into white 384-well plates at 0.5 μl per well. To start the reaction, 10 μl of 10 nM GSK3B kinase and 20 μM biotinylated CREB peptide ([…](pS)YR-NH2) in assay buffer (50 mM TRIS pH 7.5, 15 mM MgCl2, 1 mM DTT, 0.1% BSA) is added into each well. After 15 minutes, 10 μl of 2 μM ATP in assay buffer is added. Final assay concentrations are 5 nM GSK3B, […], 10 μM b-CREB peptide and 2.5% DMSO. The reaction is performed until approximately 50% of the ATP is depleted, then stopped with the addition of 20 μl KinaseGlo (Promega Corporation) solution. The stopped reaction is incubated for 10 minutes and the remaining ATP is detected via luminescence on the Victor2 (Perkin Elmer).

PIM1, sequence (P11309 whole entry): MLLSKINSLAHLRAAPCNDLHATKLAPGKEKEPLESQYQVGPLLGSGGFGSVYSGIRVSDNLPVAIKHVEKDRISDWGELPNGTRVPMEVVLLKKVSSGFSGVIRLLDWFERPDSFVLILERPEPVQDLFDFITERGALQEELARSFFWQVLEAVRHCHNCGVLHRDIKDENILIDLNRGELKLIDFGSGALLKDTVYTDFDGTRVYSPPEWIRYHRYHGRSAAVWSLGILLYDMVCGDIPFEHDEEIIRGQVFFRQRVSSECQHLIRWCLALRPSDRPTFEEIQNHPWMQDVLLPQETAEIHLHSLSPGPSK

Row | Structure (SMILES) | IC50 [1] [nM] | IC50 [2] [nM] | IC50 [3] [nM] | IC50 [4] [nM]
1 | O=C(Nc1cnccc1[C@@]1(C(F)(F)F)C[C@@H](O)C=CO1)c1ccc(F)c(-c2c(F)cccc2F)n1 [Example 48, 6-(2,6-difluorophenyl)-5-fluoro-N-(4-((2R,4R)-4-hydroxy-2-(trifluoromethyl)-3,4-dihydro-2H-pyran-2-yl)pyridin-3-yl)picolinamide] | 72 | 19600 | 1770 | 3620
2 | O=C(Nc1cnccc1[C@]1(C(F)(F)F)C[C@H](O)C=CO1)c1ccc(F)c(-c2c(F)cccc2F)n1 [Example 49, 6-(2,6-difluorophenyl)-5-fluoro-N-(4-((2S,4S)-4-hydroxy-2-(trifluoromethyl)-3,4-dihydro-2H-pyran-2-yl)pyridin-3-yl)picolinamide] | 27 | 1420 | 73 | 210
3 | O=C(Nc1cnccc1[C@]1(C(F)(F)F)C[C@H](O)CCO1)c1ccc(F)c(-c2c(F)cccc2F)n1 [Example 50, 6-(2,6-difluorophenyl)-5-fluoro-N-(4-((2S,4R)-4-hydroxy-2-(trifluoromethyl)tetrahydro-2H-pyran-2-yl)pyridin-3-yl)picolinamide] | 28 | 2130 | 110 | 196
4 | O=C(Nc1cnccc1[C@@]1(C(F)(F)F)CCCCO1)c1ccc(F)c(-c2c(F)cccc2F)n1 [Example 51, (R)-6-(2,6-difluorophenyl)-5-fluoro-N-(4-(2-(trifluoromethyl)tetrahydro-2H-pyran-2-yl)pyridin-3-yl)picolinamide] | 54 | 7360 | 617 | 3720
5 | O=C(Nc1cnccc1[C@]1(C(F)(F)F)CCCCO1)c1ccc(F)c(-c2c(F)cccc2F)n1 [Example 52, (S)-6-(2,6-difluorophenyl)-5-fluoro-N-(4-(2-(trifluoromethyl)tetrahydro-2H-pyran-2-yl)pyridin-3-yl)picolinamide] | 29 | 4220 | 124 | 695
6 | O=C(Nc1cnccc1[C@@]1(C(F)(F)F)C[C@@H](O)CCO1)c1ccc(F)c(-c2c(F)cccc2F)n1 [Example 53, 6-(2,6-difluorophenyl)-5-fluoro-N-(4-((2R,4S)-4-hydroxy-2-(trifluoromethyl)tetrahydro-2H-pyran-2-yl)pyridin-3-yl)picolinamide] | 78 | 10300 | 847 | 3120
7 | NC(=O)C[C@H]1O[C@@H](c2ccncc2NC(=O)c2ccc(F)c(-c3c(F)cccc3F)n2)C[C@@H](O)[C@@H]1O [Example 159, N-(4-((2R,4R,5S,6R)-6-(2-amino-2-oxoethyl)-4,5-dihydroxytetrahydro-2H-pyran-2-yl)pyridin-3-yl)-6-(2,6-difluorophenyl)-5-fluoropicolinamide] | – | 6640 | 890 | –
8 | CC[C@H]1O[C@@H](c2ccncc2NC(=O)c2c[nH]cc(-c3ccccc3)c2=O)C[C@@H](O)[C@@H]1O [Example 170, N-(4-((2R,4R,5S,6R)-6-ethyl-4,5-dihydroxytetrahydro-2H-pyran-2-yl)pyridin-3-yl)-4-oxo-5-phenyl-1,4-dihydropyridine-3-carboxamide] | 1450 | 11800 | 1320 | 3580
9 | O=C(Nc1cnccc1[C@@H]1C[C@H](O)[C@]2(O)CCCC[C@@H]2O1)c1c[nH]cc(-c2ccccc2)c1=O [Example 171, N-(4-((2S,4S,4aR,8aS)-4,4a-dihydroxyoctahydro-2H-chromen-2-yl)pyridin-3-yl)-4-oxo-5-phenyl-1,4-dihydropyridine-3-carboxamide] | 8370 | > 25000 | 10800 | > 25000

Stronger by IC50 [2], values ahead:

Row | IC50 [1] [nM] | IC50 [2] [nM] | IC50 [3] [nM] | IC50 [4] [nM] | Structure (SMILES)
10 | 1 | 10 | 4 | 703 | C[C@@H]1O[C@H](c2ccncc2NC(=O)c2ccc(F)c(-c3c(F)cccc3F)n2)C[C@H](O)[C@]1(O)CO [Example 19, 6-(2,6-difluorophenyl)-N-(4-((2S,4S,5R,6S)-4,5-dihydroxy-5-(hydroxymethyl)-6-methyltetrahydro-2H-pyran-2-yl)pyridin-3-yl)-5-fluoropicolinamide]
11 | 8 | 103 | 32 | 2560 | C[C@H]1O[C@@H](c2ccncc2NC(=O)c2ccc(F)c(-c3c(F)cccc3F)n2)C[C@@H](O)[C@@]1(O)CO [Example 20, 6-(2,6-difluorophenyl)-N-(4-((2R,4R,5S,6R)-4,5-dihydroxy-5-(hydroxymethyl)-6-methyltetrahydro-2H-pyran-2-yl)pyridin-3-yl)-5-fluoropicolinamide]
12 | 1 | 9 | 3 | 1140 | N#C[C@H]1OC(c2ccncc2NC(=O)c2ccc(F)c(-c3c(F)cccc3F)n2)=C[C@@H](O)[C@@H]1O [Example 21, N-(4-((2R,3S,4R)-2-cyano-3,4-dihydroxy-3,4-dihydro-2H-pyran-6-yl)pyridin-3-yl)-6-(2,6-difluorophenyl)-5-fluoropicolinamide]
13 | 68 | 1270 | 338 | 4310 | N#CC[C@H]1O[C@@H](c2ccncc2NC(=O)c2ccc(C#N)c(-c3c(F)cccc3F)n2)CC[C@@H]1O [Example 45, 5-cyano-N-(4-((2R,5S,6R)-6-(cyanomethyl)-5-hydroxytetrahydro-2H-pyran-2-yl)pyridin-3-yl)-6-(2,6-difluorophenyl)picolinamide]
14 | 2.2 | 3.1 | 3.1 | 21 | Nc1cnc(-c2c(F)cccc2F)nc1C(=O)Nc1cnccc1[C@H]1C[C@@H](O)[C@@]2(O)CCCC[C@H]2O1 [Example 172, 5-amino-2-(2,6-difluorophenyl)-N-(4-((2R,4R,4aS,8aR)-4,4a-dihydroxyoctahydro-2H-chromen-2-yl)pyridin-3-yl)pyrimidine-4-carboxamide]
15 | 1 | 10 | 4 | 187 | O=C(Nc1cnccc1[C@H]1C[C@@H](O)[C@H](O)[C@@H](CF)O1)c1ccc(F)c(-c2c(F)cccc2F)n1 [Example 282, 6-(2,6-difluorophenyl)-5-fluoro-N-(4-((2R,4R,5S,6S)-6-(fluoromethyl)-4,5-dihydroxytetrahydro-2H-pyran-2-yl)pyridin-3-yl)picolinamide]
